Laboratory results reported in ChEMBL document CHEMBL1201862, “PubChem BioAssay data set” (2004).
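Test compounds were applied to cells in 96-well plates for 48 hours at 5 doses. Here, GI50 denotes the concentration required for 50% inhibition of growth.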 The source made the active and inactive calls. Cut-off read from the data, not from the text of the source: active = GI50 up to about 1.1 µM and inactive = higher.

How the values were obtained:
Test in all cases: inhibition of tumour cell growth, NCI panel, 48 h
[1] = tested on: HT-29
[2] = tested on: RPMI-8226
[3] = tested on: A498
[4] = tested on: 786-0
[5] = tested on: HOP-62
[6] = tested on: HL-60
[7] = tested on: UACC-62
[8] = tested on: NCI-H460
[9] = tested on: SR
[10] = tested on: SNB-75
[11] = tested on: IGROV-1
[12] = tested on: TK-10
[13] = tested on: CAKI-1
[14] = tested on: NCI-H522
[15] = tested on: SK-MEL-5
[16] = tested on: RXF 393
[17] = tested on: HCT-116
[18] = tested on: MCF7

Measured: GI50

Oc1cc(-c2ccc[nH]2)nc2cc3c(cc12)OCO3
inactive: [1] 29.8 µM | [2] 43 µM | [3] 18.6 µM | [4] 40.6 µM | [5] 17.6 µM | [6] 26.9 µM | [7] 27 µM | [8] 25.2 µM | [9] 37.2 µM | [10] 13.8 µM | [11] 33.3 µM | [12] 62.8 µM

O=c1[nH]cc(OCC(F)(F)F)c(=O)[nH]1
inactive: [13] > 100 µM | [1] > 100 µM | [2] > 100 µM | [14] > 100 µM | [15] > 100 µM | [16] > 100 µM | [3] > 100 µM | [4] > 100 µM | [5] > 100 µM | [6] > 100 µM | [7] > 100 µM | [8] > 100 µM | [9] > 100 µM | [10] > 100 µM | [11] > 100 µM | [17] > 100 µM | [12] > 100 µM

O=C(NC12CC3CC(CC(C3)C1)C2)C(=O)c1c[nH]c2ccc([N+](=O)[O-])cc12
inactive: [13] 65.9 µM | [1] > 44.4 µM | [2] > 83 µM | [14] 25.2 µM | [15] 30.3 µM | [16] 21.1 µM | [3] 37.8 µM | [4] 16.9 µM | [5] 17.1 µM | [6] > 35.6 µM | [7] 19.1 µM | [8] 13.5 µM | [9] 14 µM | [10] 14.2 µM | [11] > 94.2 µM | [17] 18.7 µM | [12] 24.9 µM

O=C(Nc1nnn[nH]1)c1nc(O)cc(-c2ccccc2)n1
inactive: [13] > 100 µM | [1] > 100 µM | [2] > 100 µM | [14] > 100 µM | [15] > 100 µM | [3] > 100 µM | [4] > 100 µM | [5] > 100 µM | [6] > 100 µM | [7] > 100 µM | [8] > 100 µM | [9] > 100 µM | [10] > 100 µM | [11] > 100 µM | [17] > 100 µM | [12] > 100 µM

CC(=O)NNc1nc(C)c(C(=O)NNC(=O)C(=O)Nc2ccc(C)cc2[N+](=O)[O-])s1
inactive: [13] > 100 µM | [1] > 100 µM | [2] > 100 µM | [14] 20.7 µM | [15] > 100 µM | [16] > 100 µM | [3] > 100 µM | [4] > 100 µM | [5] > 100 µM | [6] > 100 µM | [7] > 100 µM | [8] > 100 µM | [9] 65.2 µM | [10] > 100 µM | [11] > 100 µM | [17] > 100 µM | [12] > 100 µM

S=c1sc2c(Cl)nc(Cl)nc2n1-c1ccccc1
inactive: [13] > 100 µM | [1] 33 µM | [2] > 100 µM | [14] 11.5 µM | [15] 64.4 µM | [16] 21.6 µM | [3] > 100 µM | [4] > 100 µM | [5] 59.6 µM | [6] 23.5 µM | [7] 14.6 µM | [8] > 100 µM | [9] 22.3 µM | [10] 82.6 µM | [11] 18.2 µM | [17] 16.4 µM | [12] > 100 µM

Nc1ncc(CN2CCCC2)c(-c2ccccc2O)n1
inactive: [13] > 750 µM | [1] > 750 µM | [2] > 750 µM | [14] > 750 µM | [18] > 100 µM | [15] > 750 µM | [16] > 750 µM | [3] > 750 µM | [4] > 750 µM | [5] > 750 µM | [6] 4.31 µM | [7] > 750 µM | [8] > 750 µM | [9] > 750 µM | [10] > 750 µM | [11] > 750 µM | [17] > 750 µM | [12] > 750 µM

C=C1CC2CC(O)CC(C1)C2 (stereo not given)
inactive: [13] > 100 µM | [1] > 100 µM | [2] 32.4 µM | [14] > 100 µM | [15] > 100 µM | [16] > 100 µM | [3] > 100 µM | [4] > 100 µM | [5] > 100 µM | [7] > 100 µM | [8] > 100 µM | [9] 93.5 µM | [10] > 100 µM | [11] > 100 µM | [17] > 100 µM | [12] > 100 µM

CC(C)C12C=CC(C)(CC1)n1c(=O)c3cc4ccccc4cc3c(=O)n12 (stereo not given)
inactive: [13] 87.9 µM | [1] 45.1 µM | [2] 36.3 µM | [14] 29.3 µM | [15] 32 µM | [16] > 100 µM | [3] 22.5 µM | [4] 55.3 µM | [5] > 100 µM | [6] 34 µM | [8] 45.5 µM | [9] 33.5 µM | [10] 33.7 µM | [11] 47.8 µM | [17] 47.2 µM | [12] 29.9 µM

CC(C)COC(=O)N1N=NC2C3OC(CC3=O)C21 (stereo not given)
inactive: [13] > 100 µM | [1] > 100 µM | [2] > 100 µM | [14] > 100 µM | [15] > 100 µM | [16] > 100 µM | [3] > 100 µM | [4] > 100 µM | [5] > 100 µM | [6] > 100 µM | [7] 43.6 µM | [8] > 100 µM | [9] > 100 µM | [10] > 100 µM | [11] > 31.6 µM | [17] > 100 µM | [12] > 100 µM

Nc1nc(N)c2ncn(CCCC(c3ccccc3)P(=O)(O)O)c2n1 (stereo not given)
inactive: [13] > 100 µM | [1] > 100 µM | [2] > 100 µM | [14] > 100 µM | [15] > 100 µM | [3] > 100 µM | [4] > 100 µM | [5] > 100 µM | [6] > 100 µM | [7] > 100 µM | [8] > 100 µM | [9] > 100 µM | [10] > 100 µM | [11] > 100 µM | [17] > 100 µM | [12] > 100 µM

C[C@@H]1[C@H](c2ccccc2)O[B-]2(c3ccc(Br)cc3)OC(=O)C[N+]12C (stereo not given in full)
inactive: [13] 53.3 µM | [1] > 100 µM | [2] > 100 µM | [14] > 100 µM | [15] > 100 µM | [16] 26.5 µM | [3] > 100 µM | [4] > 100 µM | [5] > 100 µM | [6] 24.9 µM | [7] > 100 µM | [8] > 100 µM | [9] > 100 µM | [10] 5.3 µM | [11] > 100 µM | [17] > 100 µM
